Converted amounts (≈) assume the structure as drawn. Like-named read-outs stand apart in the source and are kept apart here.
How the values were obtained:
[1] = test system: Pseudomonas aeruginosa (PA01 47085); assay: Minimum inhibitory concentration (MIC), antimicrobial activity; assay type: cell-based; conditions: Pathogen PA01 47085
Method: (§1) The antimicrobial activity of CSA-255 was determined in comparison to CSA-44, a CSA compound known to have very high antimicrobial activity compared to other CSAs. The microbes used in the comparative test was were methicillin resistant Staphylococcus aureus (MRSA) BAA-41 and Pseudomonas aeruginosa (PA01 47085).

[2] = test system: methicillin resistant Staphylococcus aureus (MRSA) BAA-41; assay: as above; assay type: cell-based; conditions: Pathogen MRSA BAA-41
Method: as §1

Compound	MIC ([1]; Pseudomonas aeruginosa, read-out: MIC)	MIC ([2]; Staphylococcus aureus, read-out: MIC)	MIC [1]	MIC [2]
CCCCCCCCNC(=O)CC[C@@H](C)[C@H]1CC[C@H]2[C@@H]3[C@H](OC(=O)NCCN)C[C@@H]4C[C@H](OC(=O)NCCN)CC[C@]4(C)[C@H]3C[C@H](OC(=O)NCCN)[C@]12C [CSA-255]	2 µg/mL (≈ 2.57 µM)	4 µg/mL (≈ 5.14 µM)		
CCCCCCCCOC(=O)CC[C@@H](C)[C@H]1CC[C@H]2[C@@H]3[C@H](OC(=O)CCN)C[C@@H]4C[C@H](OC(=O)CCN)CC[C@]4(C)[C@H]3C[C@H](OC(=O)CCN)[C@]12C [CSA-44]			2 µg/mL (≈ 2.72 µM)	2 µg/mL (≈ 2.72 µM)

— patent US12030912B2, “Cationic steroidal antimicrobial compounds with urethane linkages” (Brigham Young University, priority 2020, dated 2024)
